This note sets out measurements from article PMC9953043, “Licochalcone E, a β-Amyloid Aggregation Inhibitor, Regulates Microglial M1/M2 Polarization via Inhibition of CTL1-Mediated Choline Uptake” (Biomolecules, 2023).

In the experiment the target is T1, amyloid-β 1-42 (Aβ1-42) (Homo sapiens, UniProt P05067).
T1 construct: gene APP; Aβ1-42 peptide
Description: Thioflavin T aggregation assay with purified Aβ[…]-42 peptide. The format is biochemical.

T1 sequence (P05067 672-713): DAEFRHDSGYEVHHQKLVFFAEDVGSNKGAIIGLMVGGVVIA

For orientation: IC50 means the midpoint of a concentration-inhibition curve. Low readings indicate inhibition by little substance, high ones a need for much substance. `COc1c(/C=C/C(=O)c2ccc(O)c(CC=C(C)C)c2)ccc(O)c1O` [Lico D, Licochalcone D]: the IC50 was found to be 30.4 µM. That is a double-digit micromolar value.

For the compound `C=C(C)[C@H](C)c1cc(/C=C/C(=O)c2ccc(O)cc2)c(OC)cc1O` [Lico E, Licochalcone E], the IC50 is 104 µM. Against the preceding compound, the IC50 is about 3.4-fold higher.
